Reference: US20150218594A1, “CELL-FREE AND MINIMIZED METABOLIC REACTION CASCADES FOR THE PRODUCTION OF CHEMICALS” (CLARIANT PRODUKTE (DEUTSCHLAND) GMBH, priority 2012, published 2015)

Experiments:
[1] = 20° C.; cited from earlier work
[2] = tested on: E. coli; conditions: recombinant fermentative production in E. coli; cited from earlier work
[3] = tested on: artificial enzyme cascade; test: Solvent tolerance of the artificial enzyme cascade (glucose to ethanol with increasing isobutanol); format: biochemical
Protocol: A key characteristic of cell-free systems is their pronounced tolerance against higher alcohols.
All reactions were set up in 20 ml GC vials. Reaction mixtures contained 100 mM HEPES (pH 7 at 50° C.), 0.1 mM thiamine-pyrophosphate, 2.5 mM MgCl2, 25 mM D-glucose and 5 mM NAD. […] Reaction mixtures were placed in a water bath at 50° C. and gently stirred at 100 rpm.

[4] = tested on: microbial cells; conditions: cited from earlier work

SMILES	restricted miscibility in water [1]	isobutanol titers that induce toxic effects in the microbial production host [2]	ethanol produced in the presence of 6% (v/v) isobutanol ([3]; 6% (v/v) isobutanol, in 8 h)	isobutanol concentration up to which cell-free ethanol productivity and reaction kinetics were not significantly affected ([3]; glucose to ethanol as in Example 1, 50° C.)	isobutanol concentration that results in loss of productivity of microbial cells [4]
CCC(C)O (stereo not shown) [2-Butanol]	about 12%	–	–	–	–
CC(C)CO [isobutanol]	9-10%	1-2 % (v/v)	1.4 mM	up to 4 % (v/v)	ca. 1 % v/v
CCCCO [n-Butanol]	7-8%	–	–	–	–
